{"source": "patent US11324725B2", "about": "“Compositions and methods for the inhibition of pruritus” (The United States of America, as represented by the …, priority 2017, dated 2022)", "key": {"[1]": {"test": "Kinetic solubility assay (μSOL)", "format": "physicochemical", "conditions": "pH 7.4", "protocol": "The μSOL assay was used for kinetic solubility determination, as described in Avdeef, et al., “Drug absorption in vitro model: filter-immobilized artificial membranes. 2. Studies of the permeability properties of lactones in Piper methysticum Forst,” Eur J Pharm Sci 14, 271-280 (2001), which is incorporated by reference herein. In this assay, the classical saturation shake-flask solubility method was adapted as described. Test compounds were prepared as 10 mM DMSO stock solutions and diluted to a final compound concentration of 150 μM in aqueous solution (pH 7.4, 100 mM phosphate buffer). Samples were incubated at room temperature for 6 hours and vacuum-filtered using Te-Vac (Tecan, Morrisville, N.C.) to remove any precipitates. The concentration of the compound in the filtrate was measured via UV absorbance (k 250-498 nm). The unknown compound concentration was determined by comparing the fully solubilized reference plate which contained 17 μM of compound dissolved in spectroscopically pure n-propanol. All compounds were tested in duplicates. The kinetic solubility (μg/mL) of compounds was calculated using the pSOL Evolution software (Pion Inc., Billerica, Mass.). The three controls used were albendazole (low solubility), phenazolpyridine (moderate solubility) and furosemide (high solubility)."}, "[2]": {"test": "Parallel artificial membrane permeability assay (PAMPA)", "format": "in vitro ADME", "conditions": "pH 7.4", "description": "Stirring double-sink PAMPA method was employed to determine the permeability of compounds via PAMPA. The PAMPA lipid membrane consisted of an artificial membrane of a proprietary lipid mixture and dodecane (Pion Inc., Billerica, Mass.), optimized to predict gastrointestinal tract passive permeability. The lipid was immobilized on a plastic matrix of a 96-well “donor” filter plate placed above a 96-well “acceptor” plate. pH 7.4 solution was used in both donor and acceptor wells. The test articles, stocked in 10 mM DMSO solutions, were diluted to 0.05 mM in aqueous buffer (pH 7.4), and the concentration of DMSO was 0.5% in the final solution. During the 30-minute permeation period at room temperature, the test samples in the donor compartment were stirred using the Gutbox technology (Pion Inc.) to reduce the aqueous boundary layer. The test article concentrations in the donor and acceptor compartments were measured using a UV plate reader (Nano Quant, Infinite® 200 PRO, Tecan). Permeability calculations were performed using Pion Inc. software and were expressed in units of 10-6 cm/s. Compounds with low or weak UV signal were analyzed using high resolution LC/MS (Thermo QExactive, Thermo Fisher)."}, "[3]": {"test": "Rat liver microsome stability assay", "format": "in vitro ADME", "conditions": "pH 7.4; rat liver microsomes", "protocol": "Single time point microsomal stability was determined in a 96-well HTS format. Sample preparation was automated using an EVO 200 robot (Tecan, Switzerland). A high-resolution LC/MS (Thermo QExactive, ThermoFisher (Waltham, Mass.)) instrument was used to measure the percentage of compound remaining after incubation using a known method. Six standard controls were tested in each run: buspirone and propranolol (for short half-life), loperamide and diclofenac (for short to medium half-life), and carbamazepine and antipyrine (for long half-life). Briefly, the incubation consisted of 0.5 mg/mL microsomal protein, 1.0 μM compound concentration, and NADPH regeneration system (containing 0.650 mM NADP+, 1.65 mM glucose 6-phosphate, 1.65 mM MgCl2, and 0.2 U/mL G6PDH) in 100 mM phosphate buffer at pH 7.4. The incubation was carried out at 37° C. for 15 min. The reaction was quenched by adding 555 μL of acetonitrile (1:2 ratio) containing 0.28 μM albendazole (internal standard)."}, "C57BL/6N mice [4]": {"tested_on": "C57BL/6N mice", "test": "Acute scratching behavior, histamine-induced", "format": "in vivo, mouse", "conditions": "163 μg i.p., 10 minutes before 100 μg histamine into nape of neck; bouts per 30 minutes", "protocol": "(§1) All experiments using mice followed NIH guidelines and were approved by the National Institute of Dental and Craniofacial Research ACUC. Behavioral assessment of scratching behavior was conducted as follows: 6-8-week old female C57BL/6N mice (Envigo) were injected intraperitoneally with JS-11 (163 μg) or DMSO (20%) as a vehicle control. Ten minutes later, 100 μg histamine diluted in 10 μl PBS or 8.9 μg CYM5442 diluted in 10 μl ddH2O was injected subcutaneously into the nape of the neck. Scratching behavior was recorded for 30 minutes and is presented in bouts per 30 minutes. One bout was defined as scratching behavior towards the injection site between lifting the hind leg from the ground and either putting it back on the ground or guarding the paw with the mouth. To control for motor impairment by JS-11, rota-rod performance was also assessed 10 minutes after intraperitoneal injection."}, "C57BL/6N mice [5]": {"tested_on": "C57BL/6N mice", "test": "Acute scratching behavior, CYM5442-induced", "format": "in vivo, mouse", "conditions": "163 μg i.p., 10 minutes before 8.9 μg CYM5442 into nape of neck; bouts per 30 minutes", "protocol": "as §1"}, "C57BL/6N mice [6]": {"tested_on": "C57BL/6N mice", "test": "Rotarod performance and gross behavior after JS-11", "format": "in vivo, mouse", "protocol": "as §1"}}, "note": "Entries after “also recorded” stand apart in the source; their conditions may differ."}
{"smiles": "Cc1cc(CNC(=O)c2ccc3c(c2)n(CC2CC2)c(=O)n3C2CCCCC2)on1", "note": "[JS-11, 1-cyclohexyl-3-(cyclopropylmethyl)-N-((3-methylisoxazol-5-yl)methyl)-2-oxo-2,3-dihydro-1H-benzo[d]imidazole-5-carboxamide]", "values": [{"measurement": "water solubility", "setting": "[1]", "value": "relatively high-water solubility"}, {"measurement": "Papp at 30 min, 0.05 mM", "setting": "[2]", "value": 74, "unit": "nm/s"}, {"measurement": "half-life at 1 μM", "setting": "[3]", "value": 12.4, "unit": "min"}, {"measurement": "Scratching responses to histamine", "setting": "C57BL/6N mice [4]", "value": "reduced scratching responses to histamine by more than half; also recorded: significantly attenuated"}, {"measurement": "Scratching responses to CYM5442", "setting": "C57BL/6N mice [5]", "value": "strongly attenuated itch response; also recorded: significantly attenuated"}, {"measurement": "Overall mouse behavior", "setting": "C57BL/6N mice [6]; 163 μg intraperitoneally", "value": "no gross change in overall mouse behavior"}, {"measurement": "Motor coordination (rotarod performance)", "setting": "C57BL/6N mice [6]; 10 minutes after 163 μg JS-11 intraperitoneally", "value": "no impairment of motor coordination; also recorded: not significantly altered"}]}
